{
  "source": "paper PMC12165925",
  "about": "(Natural Products and Bioprospecting, 2025)",
  "key": {"[1]": {"test_system": "BEL-7402 cells", "assay": "Maximum non-toxic concentration in BEL-7402 cells (CPE monitoring)"}, "[2]": {"set-up": "method as in PMID 25980422", "conditions": "cited from earlier work"}, "[3]": {"biological_target": "T1, SARS-CoV-2 3CL^pro (Severe acute respiratory syndrome coronavirus 2, UniProt P0DTD1)"}, "[4]": {"biological_target": "ACE2 (Homo sapiens, UniProt Q9BYF1)", "sequence (Q9BYF1 18-805)": "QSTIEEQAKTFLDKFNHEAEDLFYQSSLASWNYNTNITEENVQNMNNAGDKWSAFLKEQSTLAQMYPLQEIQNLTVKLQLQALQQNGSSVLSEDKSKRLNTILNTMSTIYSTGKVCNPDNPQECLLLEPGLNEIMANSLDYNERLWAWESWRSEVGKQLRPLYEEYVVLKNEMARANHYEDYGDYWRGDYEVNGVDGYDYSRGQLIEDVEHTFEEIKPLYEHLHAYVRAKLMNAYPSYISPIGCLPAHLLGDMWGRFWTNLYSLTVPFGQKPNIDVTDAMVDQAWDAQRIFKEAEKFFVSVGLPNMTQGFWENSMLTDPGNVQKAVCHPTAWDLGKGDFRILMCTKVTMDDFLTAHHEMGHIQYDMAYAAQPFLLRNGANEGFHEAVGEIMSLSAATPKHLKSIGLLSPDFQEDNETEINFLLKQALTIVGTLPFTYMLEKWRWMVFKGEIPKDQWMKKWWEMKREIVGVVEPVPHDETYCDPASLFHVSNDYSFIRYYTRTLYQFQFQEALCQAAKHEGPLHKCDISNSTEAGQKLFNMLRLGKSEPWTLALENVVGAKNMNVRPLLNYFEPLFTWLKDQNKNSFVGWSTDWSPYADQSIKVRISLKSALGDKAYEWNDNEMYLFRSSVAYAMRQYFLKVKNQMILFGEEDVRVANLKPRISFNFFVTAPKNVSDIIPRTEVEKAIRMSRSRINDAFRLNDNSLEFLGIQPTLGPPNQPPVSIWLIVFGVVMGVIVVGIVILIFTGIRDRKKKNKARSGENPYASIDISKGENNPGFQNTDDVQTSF", "assay": "Surface plasmon resonance, immobilized ACE2", "format": "binding", "conditions": "for kon / koff: SPR; for kon: read-out: binding rate constant (ka), ACE2; for koff: read-out: dissociation rate constant (kd), ACE2", "experimental": "Binding affinities between compounds and ACE2 or S-RBD were evaluated using a Biacore T200 instrument (Cytiva, UK). […] A mixture of 50 mM NHS and 200 mM EDC was injected to activate the surface, after which 20 µg/mL ACE2 was immobilized to achieve 15,020 RU, and 30 µg/mL S-RBD reached 7193 RU. Surface blocking was performed using 1 M ethanolamine at pH 8.5. Delphinidin with 5% DMSO was injected into the flow system and analyzed for 120 s, followed by 300 s of dissociation. Glycine–HCl at pH 3.0 was used for surface regeneration between analyte injections. Data were processed using double reference subtraction and solvent corrections. Binding affinities were determined using a Langmuir 1:1 binding model in Biacore Evaluation software (Cytiva, UK)."}, "[5]": {"assay": "Cytotoxicity, CCK-8, hACE2-HEK293T cells", "conditions": "human"}, "[6]": {"test_system": "hACE2-HEK293T cells", "assay": "Cytotoxicity, CCK-8, hACE2-HEK293T cells"}, "[7]": {"biological_target": "S-RBD (Severe acute respiratory syndrome coronavirus 2, UniProt P0DTC2)", "assay": "Surface plasmon resonance, immobilized S-RBD", "format": "binding, SARS-CoV-2", "conditions": "SPR; for Kd: Langmuir 1:1 binding model; for kon: read-out: ka, S-RBD"}, "[8]": {"test_system": "HCoV-229E", "assay": "Anti HCoV-229E activity in BEL-7402 cells (CPE, RT-qPCR)", "format": "cell-based"}, "[9]": {"test_system": "SARS-CoV-2-S pseudovirus", "assay": "microbe, parasite or virus in culture", "format": "cell-based", "conditions": "for inhibition of attachment of SARS-CoV-2-S pseudovirus to ACE2-expressing HEK293T cells: 5 µM and 50 µM, p < 0.001; for IC50: Pseudovirus"}, "[10]": {"biological_target": "T1, SARS-CoV-2 3CL^pro", "assay": "biochemical", "format": "binding"}, "[11]": {"biological_target": "T1, SARS-CoV-2 3CL^pro", "assay": "biochemical"}, "[12]": {"biological_target": "cathepsin B (CTSB) (Homo sapiens, UniProt P07858)", "assay": "Host protease inhibitory activity assay, CTSB", "conditions": "50 µM", "protocol": "The activities of cathepsin B (CTSB), cathepsin L (CTSL), and chymotrypsin C (CTRC) were assessed following established methods [35, 36]. […] After further dilution to 500 pM, CTSB was incubated with the test compounds for 30 min, followed by the addition of 5 µM Z-Phe-Arg-AMC (NJPeptide Biotech, Nanjing, China) to initiate the reaction. Fluorescence was recorded using a Cytation 5 reader at excitation/emission wavelengths of 360/460 nm."}, "[13]": {"set-up": "method as in PMID 31557009", "conditions": "cited from earlier work"}, "[14]": {"biological_target": "cathepsin L (CTSL) (Homo sapiens, UniProt P07711)", "sequence (P07711 114-333)": "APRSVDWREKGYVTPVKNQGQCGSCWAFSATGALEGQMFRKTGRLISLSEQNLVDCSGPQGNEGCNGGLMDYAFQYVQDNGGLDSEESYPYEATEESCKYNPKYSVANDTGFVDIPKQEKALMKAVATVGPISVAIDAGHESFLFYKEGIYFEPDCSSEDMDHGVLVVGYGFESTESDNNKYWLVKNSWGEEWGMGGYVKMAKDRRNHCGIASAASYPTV", "assay": "Host protease inhibitory activity assay, CTSL", "conditions": "50 µM, p < 0.001", "protocol": "(§1) Similarly, CTSL (Sino Biological, Beijing, China) was diluted, activated, and incubated with the test compounds before Z-Phe-Arg-AMC was added, with fluorescence measurements taken under the same conditions. For CTRC (Novoprotein, Suzhou, China), a 5 µg/mL solution was incubated with the test compounds in Tris buffer, then activated with trypsin (Sigma, Saint Louis, USA). The reaction was initiated using 100 µM Succinyl-Ala-Ala-Pro-Phe-p-nitroanilide (NJPeptide Biotech, Nanjing, China), and absorbance was measured at 405 nm."}, "[15]": {"assay": "Cytotoxicity, CCK-8, Vero-E6 cells", "conditions": "African green monkey"}, "[16]": {"test_system": "Vero-E6 cells", "assay": "Cytotoxicity, CCK-8, Vero-E6 cells", "conditions": "at 200 µM"}, "[17]": {"biological_target": "T2, chymotrypsin C (CTRC) (Homo sapiens, UniProt Q99895)", "T2 sequence (Q99895 30-268)": "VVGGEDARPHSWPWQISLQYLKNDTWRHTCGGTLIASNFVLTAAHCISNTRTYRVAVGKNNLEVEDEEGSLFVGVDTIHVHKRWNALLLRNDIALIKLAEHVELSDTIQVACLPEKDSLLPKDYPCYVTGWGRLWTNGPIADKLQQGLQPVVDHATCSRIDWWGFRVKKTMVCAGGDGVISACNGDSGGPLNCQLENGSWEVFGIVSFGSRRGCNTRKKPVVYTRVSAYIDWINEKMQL", "assay": "Host protease inhibitory activity assay, CTRC", "conditions": "50 µM, p < 0.001", "protocol": "as §1"}},
  "data": [
    {"molecule": "C[C@@H]1O[C@@H](O[C@H]2[C@H](OC(=O)[C@]34CCC(C)(C)C[C@H]3C3=CC[C@@H]5[C@@]6(C)C[C@H](O)[C@H](O[C@@H]7O[C@H](CO)[C@@H](O)[C@H](O)[C@H]7O)C(CO)(CO)[C@@H]6CC[C@@]5(C)[C@]3(C)C[C@H]4O)OC[C@H](O)[C@@H]2O)[C@H](O)[C@H](O)[C@H]1O[C@@H]1OC[C@@H](O)[C@H](O)[C@H]1O", "note": "[DPD, Deapio platycodin D]", "values": [
      {"measurement": "maximum non-toxic concentration (MNTC)", "setting": "[1]", "result": 12.50, "unit": "µM"},
      {"measurement": "Tmax", "setting": "[2]; oral administration ref 60", "result": "under 1 h"},
      {"measurement": "elimination from tissues", "setting": "[2]; particularly lung tissue ref 60", "result": "slow elimination"},
      {"measurement": "inhibition of SARS-CoV-2 3CL^pro", "setting": "[3]", "result": "lack of inhibition"},
      {"measurement": "Kd", "setting": "[4]", "result": 358, "unit": "µM"},
      {"measurement": "kon", "setting": "[4]", "result": 54.6, "unit": "M⁻¹ s⁻¹"},
      {"measurement": "koff", "setting": "[4]", "result": 0.0196, "unit": "s⁻¹"},
      {"measurement": "CC50", "setting": "[5]", "result": "35.5 ± 1.77", "unit": "µM"},
      {"measurement": "cytotoxicity against hACE2-HEK293T cells", "setting": "[6]; 5 µM", "result": "no cytotoxicity"},
      {"measurement": "cytotoxicity against hACE2-HEK293T cells", "setting": "[6]; 50 µM, p < 0.001", "result": "had cytotoxicity"},
      {"measurement": "Kd", "setting": "[7]", "result": 379, "unit": "µM"},
      {"measurement": "kon", "setting": "[7]", "result": 103, "unit": "M⁻¹ s⁻¹"},
      {"measurement": "antiviral activity against HCoV-229E", "setting": "[8]; 12.50 µM (MNTC), BEL-7402 cells, RT-qPCR", "result": "significant antiviral activity"},
      {"measurement": "IC50", "setting": "[8]; Human coronavirus 229E, Bel-7402, read-out: IC50, HCoV-229E replication", "result": 3.3, "unit": "µM"},
      {"measurement": "selectivity index (SI), [CC50]/[IC50]", "setting": "[9]", "result": 25.73},
      {"measurement": "inhibition of attachment of SARS-CoV-2-S pseudovirus to ACE2-expressing HEK293T cells", "setting": "[9]", "result": "significantly inhibited"},
      {"measurement": "IC50", "setting": "[9]", "result": "1.38 ± 0.46", "unit": "µM"}
    ]},
    {"molecule": "Oc1cc(O)c2cc(O)c(-c3cc(O)c(O)c(O)c3)[o+]c2c1", "note": "[Delphinidin]", "values": [
      {"measurement": "Kd", "setting": "[10]", "result": 24.5, "unit": "µM"},
      {"measurement": "kon", "setting": "[10]; read-out: Ka, SARS-CoV-2 3CL^pro", "result": 296, "unit": "M⁻¹ s⁻¹"},
      {"measurement": "Ki", "setting": "[11]", "result": 0.93, "unit": "µM"},
      {"measurement": "IC50", "setting": "[11]; IC50, SARS-CoV-2 3CL^pro", "result": "1.54 ± 0.38", "unit": "µM"},
      {"measurement": "IC50", "setting": "[11]; IC50, SARS-CoV-2 3CL^pro (TDI)", "result": "4.39 ± 0.53", "unit": "µM"},
      {"measurement": "inhibition of CTSB", "setting": "[12]", "result": "did not inhibit"},
      {"measurement": "bioavailability", "setting": "[13]", "result": "low"},
      {"measurement": "IC50 shift, 3 vs 30 min pre-incubation", "setting": "[3]", "result": 2.85, "unit": "times"},
      {"measurement": "inhibition mechanism on SARS-CoV-2 3CL^pro", "setting": "[3]", "result": "non-competitive inhibitor"},
      {"measurement": "Kd", "setting": "[4]", "result": 6.64, "unit": "µM"},
      {"measurement": "kon", "setting": "[4]", "result": 309, "unit": "M⁻¹ s⁻¹"},
      {"measurement": "koff", "setting": "[4]", "result": 0.00205, "unit": "s⁻¹"},
      {"measurement": "CC50", "setting": "[5]", "result": "> 200", "unit": "µM"},
      {"measurement": "cytotoxicity against hACE2-HEK293T cells", "setting": "[6]; screening concentrations 5 µM and 50 µM", "result": "not significantly cytotoxic"},
      {"measurement": "inhibition of CTSL", "setting": "[14]", "result": "strong inhibitory effect"},
      {"measurement": "kd, S-RBD", "setting": "[7]", "result": "1.14 × 10^–3 s^−1"},
      {"measurement": "Kd", "setting": "[7]", "result": 2.98, "unit": "µM"},
      {"measurement": "kon", "setting": "[7]", "result": 383, "unit": "M⁻¹ s⁻¹"},
      {"measurement": "CC50 at 24 h", "setting": "[15]", "result": "> 200", "unit": "µM"},
      {"measurement": "cytotoxicity on Vero-E6 cells", "setting": "[16]", "result": "no toxicity"},
      {"measurement": "inhibition of CTRC", "setting": "[17]", "result": "strong inhibitory effect"},
      {"measurement": "selectivity index (SI), [CC50]/[IC50]", "setting": "[9]", "result": "> 4.41"},
      {"measurement": "inhibition of attachment of SARS-CoV-2-S pseudovirus to ACE2-expressing HEK293T cells", "setting": "[9]", "result": "significantly inhibited"},
      {"measurement": "IC50", "setting": "[9]", "result": "45.4 ± 7.09", "unit": "µM"}
    ]}
  ]
}
